Reference: publication PMC10888562 (International Journal of Molecular Sciences, 2024)
Values joined by “and” are separate entries in the source; they are usually repeats but may differ in a detail not shown here. Identical values can stand only once. Like-named read-outs stand apart in the source and are kept apart here.

How the values were obtained:
BE2-C neuroblastoma = test system: BE2-C neuroblastoma; parameters: method as in PMID 36142383, PMID 37173934, PMID 36296713; conditions: cited from earlier work
MCF-7 breast = test system: MCF-7 breast; parameters: method as in PMID 36142383, PMID 37173934, PMID 36296713; conditions: cited from earlier work
HT29 colon cells [1] = test: TMRE mitochondrial membrane potential (MtMP) assay; type: cell-based, human; conditions: GI50 drug concentration (FCCP 20 μM)
Protocol: This was achieved by determining if the overproduction of ROS induced by these complexes impacts mitochondrial activity by altering MtMP. Briefly, there is evidence showing a strong correlation between increased levels of ROS and mitochondrial impairment. […] The MtMP changes recorded are measured as RFU. […] To investigate the MtMP changes in HT29 treated cells, a TMRE-MtMP Assay Kit (Abcam, Cambridge, MA, USA) was used, as previously described. In 96-well plates, 25,000 cells/mL of HT29 colon cells in DMEM were seeded. Cells were treated with a GI50 drug concentration for each complex. At 24, 48 or 72 h, cells were washed with PBS and stained with tetramethylrhodamine, ethyl ester (TMRE) (1 μM) and incubated for 30 min. TMRE was then removed, and cells were then re-washed with PBS (0.2% BSA), after which phenol red free media was added. The plates were directly scanned to measure fluorescence (expressed as RFU), using the Glo-Max®-Multimode microplate reader (Promega Corporation, Alexandra, VIC, Australia) at an excitation/emission of 549/575 nm. For the positive control, 20 μM carbonyl cyanide 4-(trifluoromethoxy) phenylhydrazone (FCCP)) was added to the cells and incubated for 10 min. The cells were washed with PBS (0.2% BSA) and stained with TMRE (1 μM) for 30 min; this was removed, and phenol red free media was added, and the final solution was scanned as mentioned above.

H460 lung = test system: H460 lung; parameters: method as in PMID 36142383, PMID 37173934, PMID 36296713; conditions: cited from earlier work
MIA pancreas = test system: MIA pancreas; parameters: method as in PMID 36142383, PMID 37173934, PMID 36296713; conditions: cited from earlier work
[2] = test system: cisplatin-resistant ADDP ovarian variant; parameters: method as in PMID 36142383, PMID 37173934, PMID 36296713; conditions: cited from earlier work
U87 glioblastoma = test system: U87 glioblastoma; parameters: method as in PMID 36142383, PMID 37173934, PMID 36296713; conditions: cited from earlier work
peritoneal carcinoma = test system: peritoneal carcinoma; parameters: method as in PMID 20535526; conditions: BD-IX rats with peritoneal carcinoma; cited from earlier work
[3] = test system: histone deacetylase (HDAC); test: Fluorometric HDAC activity assay on extracts of treated HT29 cells; type: cell-based, human; conditions: HT29 colon cells treated 72 h at GI50 concentration; lower RFU = decline in HDAC activity; HT29 extract control 5154 ± 40
Protocol: All values are expressed as RFU.
To study the HDAC activity in HT29 treated cells, a Fluorometric HDAC Activity Assay Kit ab156064 (Abcam, Cambridge, MA, USA) was used and all sample preparations were made based on the manufacturer’s protocol. A total of 10^6 cells/mL of HT29 cells were seeded in DMEM with serum deprivation for 18 h to synchronise the cells. […] Cells were then washed with cold PBS and resuspended in lysis buffer (10 mM Tris HCl (pH 7.5), 10 mM NaCl, 15 mM MgCl2, 250 mM sucrose, 0.5% NP-40 and 0.1 mM EGTA) and lysed on ice for 20 min. Cells were centrifuged through 4 mL of sucrose cushion (30% sucrose, 10mM Tris HCl (pH 7.5), 10 mM NaCl and 3mM MgCl2) at 1300× g for 10 min at 4 °C. Supernatant was discarded and the pellet was washed and resuspended in extraction buffer (50 mM HEPES-KOH (pH 7.5), 420 mM NaCl, 0.5 mM EDTA 2Na, 0.1 mM EGTA and 10% glycerol) and then sonicated for 30 s. Nuclei were lysed for 30 min on ice and centrifuged at 20,000× g for 30 min. The supernatant was collected, and the samples were prepared for the fluorometric assay according to the manufacturer’s protocol (Histone Deacetylase (HDAC) Activity Assay Fluorometric Kit ab156064, Abcam). The changes in the relative fluorescence intensity (expressed as RFU) were recorded each minute over 60 min using the Glo-Max®-Multimode microplate reader (Promega Corporation, Alexandra, VIC, Australia) at an excitation/emission of 355/460 nm.

HT29 colon cells [4] = test system: HT29 colon cells; parameters: method as in PMID 36142383, PMID 37173934, PMID 36296713; conditions: cited from earlier work
[5] = test system: non-tumour-derived MCF10A breast line; parameters: method as in PMID 36142383, PMID 37173934, PMID 36296713; conditions: cited from earlier work
[6] = test system: multiple human cell lines; parameters: method as in PMID 36142383, PMID 37173934, PMID 36296713; conditions: average over all cell lines; cited from earlier work
HT29 colon = test system: HT29 colon; parameters: method as in PMID 36142383, PMID 37173934, PMID 36296713; conditions: cited from earlier work
A431 skin = test system: A431 skin; parameters: method as in PMID 36142383, PMID 37173934, PMID 36296713; conditions: cited from earlier work
SJ-G2 glioblastoma = test system: SJ-G2 glioblastoma; parameters: method as in PMID 36142383, PMID 37173934, PMID 36296713; conditions: cited from earlier work
Du145 prostate = test system: Du145 prostate; parameters: method as in PMID 36142383, PMID 37173934, PMID 36296713; conditions: cited from earlier work
A2780 ovarian = test system: A2780 ovarian; parameters: method as in PMID 36142383, PMID 37173934, PMID 36296713; conditions: cited from earlier work
prostate tumour = test system: prostate tumour; parameters: method as in PMID 18997969; conditions: mice with prostate tumour; cited from earlier work

SMILES	GI50 (BE2-C neuroblastoma) [nM]	GI50 (MCF-7 breast) [nM]	MtMP Changes (HT29 colon cells [1]; 24 h, control 542 ± 4) [RFU]	MtMP Changes (HT29 colon cells [1]; 48 h, control 507 ± 11) [RFU]	MtMP Changes (HT29 colon cells [1]; 72 h, control 449 ± 10) [RFU]	GI50 (H460 lung) [nM]	GI50 (MIA pancreas) [nM]	GI50 [2] [nM]	GI50 (U87 glioblastoma) [nM]	HDAC Inhibition at 72 h [3]	ROS Production (HT29 colon cells [4]; 24 h) [RFU]	ROS Production (HT29 colon cells [4]; 48 h) [RFU]	ROS Production (HT29 colon cells [4]; 72 h) [RFU]	GI50 [5] [nM]	GI50 [6] [nM]	GI50 (HT29 colon) [nM]	GI50 (A431 skin) [nM]	GI50 (SJ-G2 glioblastoma) [nM]	GI50 (Du145 prostate) [nM]	GI50 (A2780 ovarian) [nM]	other results
Cc1c(C)c2cccnc2c2ncccc12.N[C@H]1CCCC[C@@H]1N.[Pt] [56MESS, [Pt^II(5,6-Me2phen)(SS-DACH)]^2+]	59 ± 4	93 ± 44	277 ± 5	211 ± 7	151 ± 7	21 ± 2	13 ± 2	13 ± 2	35 ± 6.4	1847 RFU and 1847 ± 42 RFU	240 ± 5	218 ± 3	255 ± 4	16 ± 1	36 ± 10	10 ± 1.6	29 ± 1	66 ± 22	4.6 ± 0.4	76 ± 57	nephrotoxicity (peritoneal carcinoma): caused nephrotoxicity; tumour suppression (peritoneal carcinoma): ineffective in suppressing tumour
N[C@H]1CCCC[C@@H]1N.[Pt+2].c1cnc2c(c1)ccc1cccnc12 [PHENSS, [Pt^II(phen)(SS-DACH)]^2+]	380 ± 46	1500 ± 500	321 ± 7	305 ± 5	257 ± 6	360 ± 35	200 ± 57	190 ± 47	980 ± 270	3733 ± 37 RFU	174 ± 2	172 ± 9	176 ± 7	300 ± 58	434 ± 110	160 ± 45	480 ± 170	330 ± 66	100 ± 38	230 ± 30	rate of tumour regression (prostate tumour): comparable to cisplatin; toxicity (prostate tumour): no toxicity was detected
